# Tests used:
# [1] = target: T1, Gal4-RORγ-LBD (Homo sapiens, UniProt P51449); assay: Gal4-RORγ Luciferase Reporter Assay in HEK-293T Cells; format: cell-based; conditions: HEK-293 cells
# T1 construct: expressed in transfected cells; host or cells: HEK-293 cells (pcDNA3.1neo plasmid)
# T1 sequence (P51449 269-508 limits assumed): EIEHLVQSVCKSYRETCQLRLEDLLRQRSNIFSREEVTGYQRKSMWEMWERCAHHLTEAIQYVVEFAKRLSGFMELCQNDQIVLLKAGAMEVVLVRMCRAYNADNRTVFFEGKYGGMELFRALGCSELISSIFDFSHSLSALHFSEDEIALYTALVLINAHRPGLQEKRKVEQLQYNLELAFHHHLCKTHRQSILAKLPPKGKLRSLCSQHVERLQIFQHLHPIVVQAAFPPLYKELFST
# Method in brief: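 HEK-293 cells were transiently co-transfected with Gal4-RORγ-LBD and pGL4.31 Gal4-luciferase, with ursolic acid added at 2 μM final. Compounds were incubated overnight at 37° C. in 0.2% DMSO and luminescence read with One-Glo. Max Response is the upper plateau of a 4-parameter logistic fit, with signal lacking ursolic acid or compound set to 100.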
# [2] = target: T2, RORγ-LBD (Homo sapiens, UniProt P51449); assay: RORγ-Ligand Binding Domain (LBD) TR-FRET Assay; format: biochemical;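 for TR-FRET Assay Max Response: 665/615 nm ratio relative to signal without ursolic acid or compound set at 100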
# T2 construct: made in house; host or cells: SF9 cells (baculovirus)
# T2 sequence (P51449 269-508 limits assumed): T1 sequence (P51449 269-508 limits assumed)
# Method in brief: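 Compounds, diluted in DMSO and then in assay buffer (1% DMSO final), were combined with His-tagged RORγ-LBD lysate at roughly 3 nM final and a 200 nM biotinylated SRC1 LXXLL peptide. Ursolic acid was included at 2 μM final. Coactivator recruitment was detected by TR-FRET.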
# [3] = luciferase reporter, with 2 μM ursolic acid
"EC50 [1, 3] [nM]",EC50 [2] [nM],EC50 ([1]; 2 μM ursolic acid) [nM],Structure (SMILES),"Gal4-RORγ Assay Max Response [1, 3]",TR-FRET Assay Max Response [2],Gal4-RORγ Assay Max Response ([1]; 2 μM ursolic acid)
< 500,< 500,–,"CN(C)c1cccc(-c2ccc3c(c2)N(S(=O)(=O)c2cccc(C(F)(F)F)c2)C[C@H](CCC(=O)O)O3)n1 [Compound 4X, (S)-3-(6-(6-(dimethylamino)-pyridin-2-yl)-4-((3-(trifluoro-methyl)phenyl)sulfonyl)-3,4-dihydro-2H-benzo[b][1,4]-oxazin-2-yl)propanoic acid]",** (The symbol “**” indicates a value in the range of greater than 90 to 150),**** (The symbol “****” indicates a value greater than 200),–
–,< 500,< 500,"O=C(O)C1(C[C@H]2CN(S(=O)(=O)c3cccc(C(F)(F)F)c3)c3cc(-c4cccc(Cl)c4F)ccc3O2)CCC1 [Compound 32BF, (S)-1-((6-(3-chloro-2-fluoro-phenyl)-4-((3-(trifluoromethyl)-phenyl)sulfonyl)-3,4-dihydro-2H-benzo[b][1,4]oxazin-2-yl)-methyl)cyclobutane-1-carboxylic acid]",–,*** (The symbol “***” indicates a value in the range of greater than 150 to 200),** (The symbol “**” indicates a value in the range of greater than 90 to 150)
500 to 5000,< 500,–,"C[C@@](O)(CC[C@H]1CN(S(=O)(=O)c2cccc(C(F)(F)F)c2)c2cc(-c3cc(F)ccc3F)ccc2O1)C(=O)O [Compound 40, (R)-4-((S)-6-(2,5-difluorophenyl)-4-((3-(trifluoromethyl)phenyl)sulfonyl)-3,4-dihydro-2H-benzo[b][1,4]oxazin-2-yl)-2-hydroxy-2-methylbutanoic acid]",** (The symbol “**” indicates a value in the range of greater than 90 to 150),**** (The symbol “****” indicates a value greater than 200),–
500 to 5000,< 500,–,"O=C(O)[C@@H]1CCCN1C(=O)NCC[C@H]1CN(S(=O)(=O)c2cccc(C(F)(F)F)c2)c2cc(-c3cc(F)ccc3F)ccc2O1 [Compound 23V, ((2-((S)-6-(2,5-difluorophenyl)-4-((3-(trifluoromethyl)phenyl)-sulfonyl)-3,4-dihydro-2H-benzo[b][1,4]oxazin-2-yl)ethyl)carbamoyl)-L-proline]",** (The symbol “**” indicates a value in the range of greater than 90 to 150),**** (The symbol “****” indicates a value greater than 200),–
–,< 500,5000 to 10000,"O=C1CC[C@@](C[C@H]2CN(S(=O)(=O)c3cccc(C(F)(F)F)c3)c3cc(-c4cc(F)ccc4F)ccc3O2)(C(=O)O)N1 [Compound 75, (R)-2-(((S)-6-(2,5-difluorophenyl)-4-((3-(trifluoromethyl)phenyl)sulfonyl)-3,4-dihydro-2H-benzo[b][1,4]oxazin-2-yl)methyl)-5-oxopyrrolidine-2-carboxylic acid]",–,** (The symbol “**” indicates a value in the range of greater than 90 to 150),*** (The symbol “***” indicates a value in the range of greater than 150 to 200)
< 500,< 500,–,"COc1cccc(-c2cc(F)c3c(c2)N(S(=O)(=O)c2cccc(C(F)(F)F)c2)C[C@H](CCC(=O)O)O3)c1 [Compound 22D, (S)-3-(8-fluoro-6-(3-methoxyphenyl)-4-((3-(trifluoromethyl)phenyl)sulfonyl)-3,4-dihydro-2H-benzo[b][1,4]-oxazin-2-yl)propanoic acid]",** (The symbol “**” indicates a value in the range of greater than 90 to 150),**** (The symbol “****” indicates a value greater than 200),–
< 500,< 500,–,"O=C(O)CC[C@H]1CN(S(=O)(=O)c2cccc(C(F)(F)F)c2)c2cc(-c3cccc(C(F)(F)F)c3F)ccc2O1 [Compound 2N, (S)-3-(6-(2-fluoro-3-(trifluoromethyl)phenyl)-4-((3-(trifluoromethyl)phenyl)-sulfonyl)-3,4-dihydro-2H-benzo[b][1,4]oxazin-2-yl)propanoic acid]",*** (The symbol “***” indicates a value in the range of greater than 150 to 200),*** (The symbol “***” indicates a value in the range of greater than 150 to 200),–
< 500,< 500,–,"COc1cccc(-c2ccc3c(c2)N(S(=O)(=O)c2ccc(F)c(OC)c2)C[C@H](CCNC(=O)C(C)(C)O)O3)c1 [Compound 30N, (S)-N-(2-(4-((4-fluoro-3-methoxyphenyl)sulfonyl)-6-(3-methoxyphenyl)-3,4-dihydro-2H-benzo[b][1,4]oxazin-2-yl)ethyl)-2-hydroxy-2-methylpropanamide]",* (The symbol “*” indicates a value in the range of 25 to 90),*** (The symbol “***” indicates a value in the range of greater than 150 to 200),–
500 to 5000,< 500,–,"CC(=O)N[C@H](C)C(=O)NC[C@H]1CN(S(=O)(=O)c2cccc(C(F)(F)F)c2)c2cc(-c3cc(F)ccc3F)ccc2O1 [Compound 30AT, (R)-2-acetamido-N-(((S)-6-(2,5-difluorophenyl)-4-((3-(trifluoro-methyl)phenyl)sulfonyl)-3,4-dihydro-2H-benzo[b][1,4]-oxazin-2-yl)methyl)propanamide]",** (The symbol “**” indicates a value in the range of greater than 90 to 150),*** (The symbol “***” indicates a value in the range of greater than 150 to 200),–
–,< 500,< 500,"CC(C)(CO)C(=O)NC[C@H]1CN(S(=O)(=O)c2cccc(C(F)(F)F)c2)c2cc(-c3cc(F)cc(OC(F)F)c3)ccc2O1 [Compound 30DH, (S)-N-((6-(3-(difluoromethoxy)-5-fluorophenyl)-4-((3-(trifluoro-methyl)phenyl)sulfonyl)-3,4-dihydro-2H-benzo[b][1,4]-oxazin-2-yl)methyl)-3-hydroxy-2,2-dimethylpropanamide]",–,*** (The symbol “***” indicates a value in the range of greater than 150 to 200),* (The symbol “*” indicates a value in the range of 25 to 90)
< 500,< 500,–,"COc1cc(S(=O)(=O)N2C[C@H](CCNC(=O)C(C)(C)O)Oc3ccc(-c4cc(F)ccc4F)cc32)ccc1F [Compound 30M, (S)-N-(2-(6-(2,5-difluorophenyl)-4-((4-fluoro-3-methoxyphenyl)-sulfonyl)-3,4-dihydro-2H-benzo[b][1,4]oxazin-2-yl)ethyl)-2-hydroxy-2-methylpropanamide]",* (The symbol “*” indicates a value in the range of 25 to 90),*** (The symbol “***” indicates a value in the range of greater than 150 to 200),–
< 500,< 500,–,"COc1cccc(-c2ccc3c(c2)N(S(=O)(=O)c2cccc(C(F)(F)F)c2)C[C@H](CCc2n[nH]c(=O)o2)O3)c1 [Compound 28E, (S)-5-(2-(6-(3-methoxyphenyl)-4-((3-(trifluoromethyl)phenyl)-sulfonyl)-3,4-dihydro-2H-benzo[b][1,4]oxazin-2-yl)ethyl)-1,3,4-oxadiazol-2(3H)-one]",** (The symbol “**” indicates a value in the range of greater than 90 to 150),**** (The symbol “****” indicates a value greater than 200),–
–,< 500,< 500,"COc1cc(Cl)cc(-c2ccc3c(c2)N(S(=O)(=O)c2cccc(C(F)(F)F)c2)C[C@H](CC(C)(C)C(=O)O)O3)c1 [Compound 32AH, (S)-3-(6-(3-chloro-5-methoxy-phenyl)-4-((3-(trifluoromethyl)-phenyl)sulfonyl)-3,4-dihydro-2H-benzo[b][1,4]oxazin-2-yl)-2,2-dimethylpropanoic acid]",–,*** (The symbol “***” indicates a value in the range of greater than 150 to 200),** (The symbol “**” indicates a value in the range of greater than 90 to 150)
–,< 500,< 500,"CC(C)(C[C@H]1CN(S(=O)(=O)c2cccc(C(F)(F)F)c2)c2cc(-c3c(Cl)cccc3Cl)ccc2O1)C(=O)O [Compound 32AU, (S)-3-(6-(2,6-dichlorophenyl)-4-((3-(trifluoromethyl)phenyl)-sulfonyl)-3,4-dihydro-2H-benzo[b][1,4]oxazin-2-yl)-2,2-dimethylpropanoic acid]",–,** (The symbol “**” indicates a value in the range of greater than 90 to 150),** (The symbol “**” indicates a value in the range of greater than 90 to 150)
< 500,< 500,–,"CN(CC(=O)O)C(=O)NCC[C@H]1CN(S(=O)(=O)c2cccc(C(F)(F)F)c2)c2cc(-c3cc(F)ccc3F)ccc2O1 [Compound 23W, (S)-N-((2-(6-(2,5-difluorophenyl)-4-((3-(trifluoromethyl)phenyl)-sulfonyl)-3,4-dihydro-2H-benzo[b][1,4]oxazin-2-yl)ethyl)carbamoyl)-N-methylglycine]",** (The symbol “**” indicates a value in the range of greater than 90 to 150),**** (The symbol “****” indicates a value greater than 200),–
